From publication PMC8640094, “Diaportones A–C: Three New Metabolites From Endophytic Fungus Diaporthe foeniculina BZM-15” (Frontiers in Chemistry, 2021)
pIC50: −log10 of the molar value. Several values for one entry are separate records, joined by “and”; a condition that tells them apart may be missing. Identical values can stand only once.

Key:
MCF-7 (breast cancer) = experiment: MTT cytotoxicity assay, MCF-7 cells; type: cell-based, human; conditions: for cell inhibition: listed as Comp.5
Procedure, shortened: (§1)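 Cells seeded at 5 × 10^4 cells/ml, grown 24 h at 37 °C, 5% CO2, then exposed to compounds for 72 h. Viability by MTT, formazan dissolved in DMSO and OD read at 490 nm; IC50 calculated from OD.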

normal cell line LX-2 = experiment: MTT cytotoxicity assay, normal cell line LX-2; type: cell-based; conditions: for cell inhibition: listed as Comp.5
Procedure, shortened: as §1

HepG2 (hepatoma cancer) = experiment: MTT cytotoxicity assay, HepG2 cells; type: cell-based, human; conditions: for cell inhibition: listed as Comp.5
Procedure, shortened: (§2)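 Cells seeded at 5 × 10^4 cells/ml, grown 24 h at 37 °C/5% CO2, then exposed to compounds for 72 h. Viability by MTT, formazan dissolved in DMSO, absorbance at 490 nm; IC50 derived from OD.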

SF-268 (CNS cancer) = experiment: MTT cytotoxicity assay, SF-268 cells; type: cell-based, human; conditions: for cell inhibition: SF268 cells, listed as Comp.5
Procedure, shortened: as §2

[1] = LX-2, c 1.00 μM, three replicates
[2] = LX-2, c 2.00 μM, three replicates
[3] = LX-2, c 4.00 μM, three replicates
[4] = LX-2, c 8.00 μM, three replicates
[5] = LX-2, c 16.00 μM, three replicates
[6] = LX-2, c 32.00 μM, three replicates
[7] = LX-2, c 64.00 μM, three replicates
[8] = LX-2, c 128.00 μM, three replicates

CC(C)C12CC1C(C)(O)CC2=O (centres unmarked) [compound 5, diaportone C]
inhibition at 1 µM (MCF-7 (breast cancer); Homo sapiens, MCF7, MCF-7, c 1.00 μM, three replicates, read-out: cell inhibition): 8.13% | inhibition at 2 µM (MCF-7 (breast cancer); Homo sapiens, MCF7, MCF-7, c 2.00 μM, three replicates, read-out: cell inhibition): 15.1% | inhibition at 4 µM (MCF-7 (breast cancer); Homo sapiens, MCF7, MCF-7, c 4.00 μM, three replicates, read-out: cell inhibition): 21.1% | inhibition at 8 µM (MCF-7 (breast cancer); Homo sapiens, MCF7, MCF-7, c 8.00 μM, three replicates, read-out: cell inhibition): 28.2% | inhibition at 16 µM (MCF-7 (breast cancer); Homo sapiens, MCF7, MCF-7, c 16.00 μM, three replicates, read-out: cell inhibition): 33.4% | inhibition at 32 µM (MCF-7 (breast cancer); Homo sapiens, MCF7, MCF-7, c 32.00 μM, three replicates, read-out: cell inhibition): 41.7% | inhibition at 64 µM (MCF-7 (breast cancer); Homo sapiens, MCF7, MCF-7, c 64.00 μM, three replicates, read-out: cell inhibition): 54.1% | inhibition at 128 µM (MCF-7 (breast cancer); Homo sapiens, MCF7, MCF-7, c 128.00 μM, three replicates, read-out: cell inhibition): 70.1% | pIC50 (MCF-7 (breast cancer); Homo sapiens, MCF7, MTT, 72 h, mean ± SD (n = 3)): < 4.40 | cell inhibition (MCF-7 (breast cancer); MCF-7, c 1.00 μM, three replicates): 8.16% and 9.09% | cell inhibition (MCF-7 (breast cancer); MCF-7, c 2.00 μM, three replicates): 16.13% and 15.25% | cell inhibition (MCF-7 (breast cancer); MCF-7, c 4.00 μM, three replicates): 22.04% and 21.31% | cell inhibition (MCF-7 (breast cancer); MCF-7, c 8.00 μM, three replicates): 28.45% and 29.1% | cell inhibition (MCF-7 (breast cancer); MCF-7, c 16.00 μM, three replicates): 33.57% and 33.06% | cell inhibition (MCF-7 (breast cancer); MCF-7, c 32.00 μM, three replicates): 42.15% and 41.31% | cell inhibition (MCF-7 (breast cancer); MCF-7, c 64.00 μM, three replicates): 53.35% and 53.16% | cell inhibition (MCF-7 (breast cancer); MCF-7, c 128.00 μM, three replicates): 71.36% and 73.18% | inhibition at 1 µM (normal cell line LX-2; [1]): 11.1% | cell inhibition (normal cell line LX-2; [1]): 11.45% and 12.45% | inhibition at 2 µM (normal cell line LX-2; [2]): 13.5% | cell inhibition (normal cell line LX-2; [2]): 13.52% and 12.56% | inhibition at 4 µM (normal cell line LX-2; [3]): 23.6% | cell inhibition (normal cell line LX-2; [3]): 24.13% and 24.41% | inhibition at 8 µM (normal cell line LX-2; [4]): 30.1% | cell inhibition (normal cell line LX-2; [4]): 32.44% and 30.6% | inhibition at 16 µM (normal cell line LX-2; [5]): 31.7% | cell inhibition (normal cell line LX-2; [5]): 33.08% and 32.3% | inhibition at 32 µM (normal cell line LX-2; [6]): 46.6% | cell inhibition (normal cell line LX-2; [6]): 43.56% and 46.07% | inhibition at 64 µM (normal cell line LX-2; [7]): 70.3% | cell inhibition (normal cell line LX-2; [7]): 71.68% and 70.2% | inhibition at 128 µM (normal cell line LX-2; [8]): 89.2% | cell inhibition (normal cell line LX-2; [8]): 89.22% and 90.45% | pIC50 (normal cell line LX-2; MTT, 72 h, mean ± SD (n = 3)): < 4.40 | cell inhibition (HepG2 (hepatoma cancer); HepG2, c 1.00 μM, three replicates): 3.46% and 5.11% | cell inhibition (HepG2 (hepatoma cancer); HepG2, c 2.00 μM, three replicates): 7.29% and 7.31% | cell inhibition (HepG2 (hepatoma cancer); HepG2, c 4.00 μM, three replicates): 9.34% and 11.19% | cell inhibition (HepG2 (hepatoma cancer); HepG2, c 8.00 μM, three replicates): 16.9% and 15.77% | cell inhibition (HepG2 (hepatoma cancer); HepG2, c 16.00 μM, three replicates): 25.3% and 27.11% | cell inhibition (HepG2 (hepatoma cancer); HepG2, c 32.00 μM, three replicates): 44.75% and 45.2% | cell inhibition (HepG2 (hepatoma cancer); HepG2, c 64.00 μM, three replicates): 77.47% and 75.51% | cell inhibition (HepG2 (hepatoma cancer); HepG2, c 128.00 μM, three replicates): 83.13% and 82.98% | inhibition at 1 µM (HepG2 (hepatoma cancer); Homo sapiens, HepG2, HepG2, c 1.00 μM, three replicates, read-out: cell inhibition): 3.33% | inhibition at 2 µM (HepG2 (hepatoma cancer); Homo sapiens, HepG2, HepG2, c 2.00 μM, three replicates, read-out: cell inhibition): 7.36% | inhibition at 4 µM (HepG2 (hepatoma cancer); Homo sapiens, HepG2, HepG2, c 4.00 μM, three replicates, read-out: cell inhibition): 9.89% | inhibition at 8 µM (HepG2 (hepatoma cancer); Homo sapiens, HepG2, HepG2, c 8.00 μM, three replicates, read-out: cell inhibition): 16.4% | inhibition at 16 µM (HepG2 (hepatoma cancer); Homo sapiens, HepG2, HepG2, c 16.00 μM, three replicates, read-out: cell inhibition): 27.6% | inhibition at 32 µM (HepG2 (hepatoma cancer); Homo sapiens, HepG2, HepG2, c 32.00 μM, three replicates, read-out: cell inhibition): 46.2% | inhibition at 64 µM (HepG2 (hepatoma cancer); Homo sapiens, HepG2, HepG2, c 64.00 μM, three replicates, read-out: cell inhibition): 77.2% | inhibition at 128 µM (HepG2 (hepatoma cancer); Homo sapiens, HepG2, HepG2, c 128.00 μM, three replicates, read-out: cell inhibition): 81.1% | pIC50 (HepG2 (hepatoma cancer); Homo sapiens, HepG2, MTT, 72 h, mean ± SD (n = 3)): < 4.40 | inhibition at 1 µM (SF-268 (CNS cancer); Homo sapiens, SF-268, SF268 cells, c 1.00 μM, triplicate values, read-out: cell inhibition): 6.47% | inhibition at 2 µM (SF-268 (CNS cancer); Homo sapiens, SF-268, SF268 cells, c 2.00 μM, triplicate values, read-out: cell inhibition): 15.7% | inhibition at 4 µM (SF-268 (CNS cancer); Homo sapiens, SF-268, SF268 cells, c 4.00 μM, triplicate values, read-out: cell inhibition): 22.9% | inhibition at 8 µM (SF-268 (CNS cancer); Homo sapiens, SF-268, SF268 cells, c 8.00 μM, triplicate values, read-out: cell inhibition): 22.1% | inhibition at 16 µM (SF-268 (CNS cancer); Homo sapiens, SF-268, SF268 cells, c 16.00 μM, triplicate values, read-out: cell inhibition): 27.1% | inhibition at 32 µM (SF-268 (CNS cancer); Homo sapiens, SF-268, SF268 cells, c 32.00 μM, triplicate values, read-out: cell inhibition): 31.9% | inhibition at 64 µM (SF-268 (CNS cancer); Homo sapiens, SF-268, SF268 cells, c 64.00 μM, triplicate values, read-out: cell inhibition): 67.2% | inhibition at 128 µM (SF-268 (CNS cancer); Homo sapiens, SF-268, SF268 cells, c 128.00 μM, triplicate values, read-out: cell inhibition): 72.8% | pIC50 (SF-268 (CNS cancer); Homo sapiens, SF-268, MTT, 72 h, mean ± SD (n = 3), read-out: IC50 SF268): < 4.40 | cell inhibition (SF-268 (CNS cancer); c 1.00 μM, triplicate values): 6.8% and 6.81% | cell inhibition (SF-268 (CNS cancer); c 2.00 μM, triplicate values): 13.52% and 13.37% | cell inhibition (SF-268 (CNS cancer); c 4.00 μM, triplicate values): 23.4% and 24.41% | cell inhibition (SF-268 (CNS cancer); c 8.00 μM, triplicate values): 23.23% and 26.17% | cell inhibition (SF-268 (CNS cancer); c 16.00 μM, triplicate values): 25.97% and 27.9% | cell inhibition (SF-268 (CNS cancer); c 32.00 μM, triplicate values): 33.15% and 30.82% | cell inhibition (SF-268 (CNS cancer); c 64.00 μM, triplicate values): 67.13% and 67.17% | cell inhibition (SF-268 (CNS cancer); c 128.00 μM, triplicate values): 70.54% and 72.29%
